Experimental data as given in patent US11000033B2, “Ketone or oxime compound, and herbicide” (NISSAN CHEMICAL CORPORATION, priority 2014, dated 2021).

Experiments:
Format in all cases: in vivo
[1] = system: Alopecurus myosuroides; assay: Test Example 5: herbicidal effect by foliage application, plastic box (symbol J); settings: 320 g/ha, 3 weeks after application
In short: (§1)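 Effect is rated 3 weeks after a foliar spray of water-diluted emulsion concentrate at a predetermined herbicide amount. Plants had grown 14 days in a 25° C. to 30° C. greenhouse from seed in sterilized diluvial soil.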

[2] = system: wheat; assay: Test Example 5: effect on crop by foliage application, plastic box (symbol e); settings: 320 g/ha, 3 weeks after application
In short: (§2)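 Greenhouse culture at 25° C. to 30° C. followed spot-like sowing into sterilized diluvial soil, with seed covered by roughly 1.5 cm of soil.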

[3] = system: Echinochloa crus-galli var. crus-galli; assay: Test Example 3: herbicidal effect by foliage application, Wagner pot (symbol H); settings: application herbicide amount 320 g/ha
In short: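 Scoring took place 3 weeks after application, using fixed criteria. Plants had been raised from seed for 14 days at 25 to 30 °C in submerged alluvial soil before a diluted emulsion of the test compound was sprayed uniformly on the leaves.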

[4] = system: beet; assay: Test Example 4: effect on crop by soil treatment (symbol f); settings: application herbicide amount 320 g/ha
In short: (§3)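 Seeds were sown in spots on sterilized diluvial soil in a plastic box and covered with about 1.5 cm of soil. Plants were then grown in a greenhouse at 25° C. to 30° C.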

[5] = system: Echinochloa oryzacola Vasing.; assay: Test Example 1: herbicidal activity, application before weed generation in submerged conditions (symbol A); settings: application herbicide amount 320 g/ha
In short: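 Flooded alluvial soil (4 cm water) was mixed-sown with the three weed species, and 2.5-leaf rice seedlings were transplanted. On sowing day, a water-diluted emulsion at a predetermined rate was applied to the water surface. After 3 weeks in a 25–30 °C greenhouse, effect was scored 0–5.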

[6] = system: beet; assay: Test Example 5: effect on crop by foliage application, plastic box (symbol f); settings: 320 g/ha, 3 weeks after application
In short: as §2

[7] = system: Veronica persica; assay: Test Example 4: herbicidal effect by soil treatment (symbol R); settings: application herbicide amount 320 g/ha
In short: (§4)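 Seeds were sown in sterilized diluvial soil, covered with about 1.5 cm of soil, and the soil surface was sprayed with a water-diluted emulsion of the compound at a predetermined rate. Plants grew in a greenhouse at 25° C. to 30° C.; effects were scored visually 3 weeks after application.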

[8] = system: Abutilon theophrasti; assay: Test Example 5: herbicidal effect by foliage application, plastic box (symbol M); settings: 320 g/ha, 3 weeks after application
In short: as §1

[9] = system: soybean; assay: Test Example 5: effect on crop by foliage application, plastic box (symbol d); settings: 320 g/ha, 3 weeks after application
In short: as §2

[10] = system: rice plant; assay: Test Example 5: effect on crop by foliage application, plastic box (symbol b); settings: 320 g/ha, 3 weeks after application
In short: as §2

[11] = system: soybean; assay: Test Example 4: effect on crop by soil treatment (symbol d); settings: application herbicide amount 320 g/ha
In short: as §3

[12] = system: transplanted rice plant; assay: Test Example 1: effect on crop, application before weed generation in submerged conditions (symbol a); settings: application herbicide amount 320 g/ha
In short: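 Alluvial soil pots flooded to 4 cm water, sown with Echinochloa oryzacola, Scirpus juncoides and Monochoria vaginalis, then transplanted with 2.5 leaf stage rice seedlings; pre-emergence application. Greenhouse 25° C. to 30° C.; scored 0–5 by herbicidal ratio 3 weeks after application.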

[13] = system: corn; assay: Test Example 4: effect on crop by soil treatment (symbol c); settings: application herbicide amount 320 g/ha
In short: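 Grown at 25° C. to 30° C. in a greenhouse, the crops came from seed sown spot-wise in sterilized diluvial soil under roughly 1.5 cm of covering soil.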

[14] = system: Galium spurium; assay: Test Example 5: herbicidal effect by foliage application, plastic box (symbol Q); settings: 320 g/ha, 3 weeks after application
In short: as §1

[15] = system: Stellaria media; assay: Test Example 4: herbicidal effect by soil treatment (symbol P); settings: application herbicide amount 320 g/ha
In short: as §4

Compound	J: Alopecurus myosuroides, herbicidal effect (criteria of Test Example 1) [1]	e: wheat, effect on crop (criteria of Test Example 1) [2]	herbicidal effect on H (Echinochloa crus-galli var. crus-galli), grade 0-5 [3]	Effect on crop grade, f: beet [4]	Herbicidal effect grade, A: Echinochloa oryzacola Vasing. [5]	f: beet, effect on crop (criteria of Test Example 1) [6]	Herbicidal effect grade, R: Veronica persica [7]	M: Abutilon theophrasti, herbicidal effect (criteria of Test Example 1) [8]	d: soybean, effect on crop (criteria of Test Example 1) [9]	b: directly sowed rice plant, effect on crop (criteria of Test Example 1) [10]	Effect on crop grade, d: soybean [11]	Effect grade on crop, a: transplanted rice plant [12]	Effect on crop grade, c: corn [13]	Q: Galium spurium, herbicidal effect (criteria of Test Example 1) [14]	Herbicidal effect grade, P: Stellaria media [15]	f: beet, effect on crop grade [4]	R: Veronica persica, herbicidal effect grade [7]	d: soybean, effect on crop grade [11]	c: corn, effect on crop grade [13]	P: Stellaria media, herbicidal effect grade [15]
COc1cc(C)c(C2=C(O)CC(CC(C)=O)C2=O)c(C)c1 (stereo not drawn) [7-020]	4 (Herbicidal ratio of 70% or higher and lower than 90%)	0 (Herbicidal ratio of 5% or lower (almost no effect))	4 (Herbicidal ratio of 70% or higher and lower than 90%)	0 (Herbicidal ratio of 5% or lower (almost no effect))	2 (Herbicidal ratio of 20% or higher and lower than 40%)	0 (Herbicidal ratio of 5% or lower (almost no effect))	0 (Herbicidal ratio of 5% or lower (almost no effect))	0 (Herbicidal ratio of 5% or lower (almost no effect))	0 (Herbicidal ratio of 5% or lower (almost no effect))	3 (Herbicidal ratio of 40% or higher and lower than 70%)	0 (Herbicidal ratio of 5% or lower (almost no effect))	2 (Herbicidal ratio of 20% or higher and lower than 40%)	0 (Herbicidal ratio of 5% or lower (almost no effect))	0 (Herbicidal ratio of 5% or lower (almost no effect))	0 (Herbicidal ratio of 5% or lower (almost no effect))	–	–	–	–	–
CON=C(C)CC1CC(O)=C(c2c(C)cc(C)cc2SC)C1=O (stereo not drawn) [6-075]	5 (Herbicidal ratio of 90% or more (almost completely withered))	2 (Herbicidal ratio of 20% or higher and lower than 40%)	3 (Herbicidal ratio of 40% or higher and lower than 70%)	–	4 (Herbicidal ratio of 70% or higher and lower than 90%)	0 (Herbicidal ratio of 5% or lower (almost no effect))	–	0 (Herbicidal ratio of 5% or lower (almost no effect))	0 (Herbicidal ratio of 5% or lower (almost no effect))	4 (Herbicidal ratio of 70% or higher and lower than 90%)	–	3 (Herbicidal ratio of 40% or higher and lower than 70%)	–	0 (Herbicidal ratio of 5% or lower (almost no effect))	–	0 (Herbicidal ratio of 5% or lower (almost no effect))	0 (Herbicidal ratio of 5% or lower (almost no effect))	0 (Herbicidal ratio of 5% or lower (almost no effect))	0 (Herbicidal ratio of 5% or lower (almost no effect))	0 (Herbicidal ratio of 5% or lower (almost no effect))
CON=C(C)CC1CC(OC(=O)COc2ccccc2)=C(c2c(C)cc(-c3ccccc3)cc2OC)C1=O (stereo not drawn) [6-100]	5 (Herbicidal ratio of 90% or more (almost completely withered))	5 (Herbicidal ratio of 90% or more (almost completely withered))	5 (Herbicidal ratio of 90% or more (almost completely withered))	0 (Herbicidal ratio of 5% or lower (almost no effect))	5 (Herbicidal ratio of 90% or more (almost completely withered))	0 (Herbicidal ratio of 5% or lower (almost no effect))	5 (Herbicidal ratio of 90% or more (almost completely withered))	3 (Herbicidal ratio of 40% or higher and lower than 70%)	3 (Herbicidal ratio of 40% or higher and lower than 70%)	5 (Herbicidal ratio of 90% or more (almost completely withered))	0 (Herbicidal ratio of 5% or lower (almost no effect))	5 (Herbicidal ratio of 90% or more (almost completely withered))	4 (Herbicidal ratio of 70% or higher and lower than 90%)	4 (Herbicidal ratio of 70% or higher and lower than 90%)	4 (Herbicidal ratio of 70% or higher and lower than 90%)	–	–	–	–	–
CON=C(C)CC1CC(O)=C(c2c(C)cc(-c3ccc(Cl)cc3)cc2OC)C1=O (stereo not drawn) [6-077, 2-(4′-chloro-3-methoxy-5-methyl-[1,1′-biphenyl]-4-yl)-3-hydroxy-5-{2-(methoxyimino)propyl}cyclopent-2-enone]	5 (Herbicidal ratio of 90% or more (almost completely withered))	5 (Herbicidal ratio of 90% or more (almost completely withered))	5 (Herbicidal ratio of 90% or more (almost completely withered))	–	5 (Herbicidal ratio of 90% or more (almost completely withered))	4 (Herbicidal ratio of 70% or higher and lower than 90%)	–	5 (Herbicidal ratio of 90% or more (almost completely withered))	2 (Herbicidal ratio of 20% or higher and lower than 40%)	5 (Herbicidal ratio of 90% or more (almost completely withered))	–	5 (Herbicidal ratio of 90% or more (almost completely withered))	–	4 (Herbicidal ratio of 70% or higher and lower than 90%)	–	1 (Herbicidal ratio of 5% or higher and lower than 20%)	4 (Herbicidal ratio of 70% or higher and lower than 90%)	0 (Herbicidal ratio of 5% or lower (almost no effect))	0 (Herbicidal ratio of 5% or lower (almost no effect))	3 (Herbicidal ratio of 40% or higher and lower than 70%)
